Assay results taken from patent US10590140B2, “Tetrahydropyrimidodiazepine and dihydropyridodiazepine compounds for treating pain and pain related conditions” (ESTEVE PHARMACEUTICALS, S.A., priority 2016, dated 2020).

These compounds were tested against human α2δ-1 subunit of Cav2.2 calcium channel (Homo sapiens (Human), UniProt P54289) (assay: Binding assay to human α2δ-1 subunit of Cav2.2 calcium channel ([3H]-Gabapentin)). Conditions: binding to α2δ-1, [3H]-Gabapentin; read-out: Ki (nM) α2δ-1.
Sequence of human α2δ-1 subunit of Cav2.2 calcium channel (P54289 25-1103): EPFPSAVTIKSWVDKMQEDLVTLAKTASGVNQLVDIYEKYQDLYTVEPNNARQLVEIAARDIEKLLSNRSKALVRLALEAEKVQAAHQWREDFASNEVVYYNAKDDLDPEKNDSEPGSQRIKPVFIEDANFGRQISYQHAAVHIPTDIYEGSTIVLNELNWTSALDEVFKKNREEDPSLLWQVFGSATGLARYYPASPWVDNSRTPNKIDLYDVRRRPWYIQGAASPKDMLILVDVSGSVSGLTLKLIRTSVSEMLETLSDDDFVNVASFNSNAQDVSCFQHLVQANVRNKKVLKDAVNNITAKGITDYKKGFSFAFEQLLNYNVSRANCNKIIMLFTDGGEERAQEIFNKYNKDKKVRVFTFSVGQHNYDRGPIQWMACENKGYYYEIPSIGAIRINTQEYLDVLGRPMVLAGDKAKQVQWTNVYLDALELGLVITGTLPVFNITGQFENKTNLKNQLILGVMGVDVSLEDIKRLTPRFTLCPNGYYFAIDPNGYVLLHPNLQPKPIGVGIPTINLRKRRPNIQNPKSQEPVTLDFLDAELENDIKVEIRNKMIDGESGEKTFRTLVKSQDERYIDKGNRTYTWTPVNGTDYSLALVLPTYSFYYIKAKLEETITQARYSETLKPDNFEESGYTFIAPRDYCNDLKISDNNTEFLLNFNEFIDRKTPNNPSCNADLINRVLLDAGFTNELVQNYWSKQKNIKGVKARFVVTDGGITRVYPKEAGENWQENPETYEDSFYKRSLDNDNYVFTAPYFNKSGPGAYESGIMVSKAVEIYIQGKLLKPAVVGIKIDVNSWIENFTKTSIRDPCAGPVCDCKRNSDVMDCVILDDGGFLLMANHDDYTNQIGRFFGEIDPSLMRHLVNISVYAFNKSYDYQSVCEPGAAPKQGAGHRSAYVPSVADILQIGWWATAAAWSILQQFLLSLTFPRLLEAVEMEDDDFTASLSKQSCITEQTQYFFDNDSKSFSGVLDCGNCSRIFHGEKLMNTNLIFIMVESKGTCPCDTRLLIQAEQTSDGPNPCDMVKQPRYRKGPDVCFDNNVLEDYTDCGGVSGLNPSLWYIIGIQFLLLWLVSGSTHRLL
In short: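 [3H]-gabapentin binding, 60 min at 27° C; nonspecific binding defined with 10 μM pregabalin. Terminated by filtration on PEI-presoaked GF/C filters, ice-cold 50 mM Tris-HCl pH 7.4 washes, then scintillation counting.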

`CCNc1ncc2c(n1)N(C)CCN(Cc1ccccc1OC(CCNC)c1ccccc1)C2=O` (stereo not drawn) [Example 409, 2-(ethylamino)-9-methyl-6-(2-(3-(methylamino)-1-phenylpropoxy)benzyl)-6,7,8,9-tetrahydro-5H-pyrimido[4,5-e][1,4]diazepin-5-one] and `CNCCC(Oc1cccc(CN2CCN(C)c3ncncc3C2=O)c1)c1ccccc1` (stereo not drawn) [Example 429, 9-methyl-6-(3-(3-(methylamino)-1-phenylpropoxy)benzyl)-6,7,8,9-tetrahydro-5H-pyrimido[4,5-e][1,4]diazepin-5-one] cannot be ordered by Ki: > 3000 nM for the first, > 3000 nM for the second.

`CCNc1ncc2c(n1)N(C)CCN(c1cccc(OCCCN(Cc3ccccc3)C(=O)OC(C)(C)C)c1)C2=O` [Example 89, tert-butyl benzyl (3-(3-(2-(ethylamino)-9-methyl-5-oxo-5,7,8,9-tetrahydro-6H-pyrimido[4,5-e][1,4]diazepin-6-yl)phenoxy)propyl) carbamate] and `CCNc1ncc2c(n1)N(C)CCN(c1cccc(O[C@@H](CCN(C)C(=O)OC(C)(C)C)c3cccs3)c1)C2=O` [Example 82, tert-butyl (S)-(3-(3-(2-(ethylamino)-9-methyl-5-oxo-5,7,8,9-tetrahydro-6H-pyrimido[4,5-e][1,4]diazepin-6-yl)phenoxy)-3-(thiophen-2-yl)propyl)(methyl) carbamate] cannot be ordered by Ki: > 3000 nM for the first, > 3000 nM for the second.

`CCNc1ncc2c(n1)N(C)CCN(c1cccc(COC(CCN(C)C(=O)OC(C)(C)C)C(C)C)c1)C2=O` (stereo not drawn) [Example 126, tert-butyl (3-((3-(2-(ethylamino)-9-methyl-5-oxo-5,7,8,9-tetrahydro-6H-pyrimido[4,5-e][1,4]diazepin-6-yl)benzyl)oxy)-4-methylpentyl)(methyl) carbamate] and `CN(CCC(OCc1cccc(N2CCN(C)c3cc(Cl)ncc3C2=O)c1)c1ccccc1)C(=O)OC(C)(C)C` (stereo not drawn) [Example 300, tert-butyl (3-((3-(8-chloro-1-methyl-5-oxo-1,2,3,5-tetrahydro-4H-pyrido[4,3-e][1,4]diazepin-4-yl)benzyl)oxy)-3-phenylpropyl)(methyl) carbamate] cannot be ordered by Ki: > 3000 nM for the first, > 3000 nM for the second.

`CSc1ncc2c(n1)N(C)CCN(c1cccc(O[C@@H](CCN(C)C(=O)OC(C)(C)C)c3ccccc3)c1)C2=O` [Example 3, tert-butyl (S)-methyl(3-(3-(9-methyl-2-(methylthio)-5-oxo-5,7,8,9-tetrahydro-6H-pyrimido[4,5-e][1,4]diazepin-6-yl)phenoxy)-3-phenylpropyl) carbamate] and `CSc1ncc2c(n1)N(C)CCN(c1cccc(CCO)c1)C2=O` [Example 36, 6-(3-(2-hydroxyethyl)phenyl)-9-methyl-2-(methylthio)-6,7,8,9-tetrahydro-5H-pyrimido[4,5-e][1,4]diazepin-5-one] cannot be ordered by Ki: > 3000 nM for the first, > 3000 nM for the second.

Compared with `CCNc1cc2c(cn1)C(=O)N(c1cccc(-c3nnc(C)o3)c1)CCN2C` [Example 54, 8-(ethylamino)-1-methyl-4-(3-(5-methyl-1,3,4-oxadiazol-2-yl)phenyl)-1,2,3,4-tetrahydro-5H-pyrido[4,3-e][1,4]diazepin-5-one], `CCNc1ncc2c(n1)N(C)CCN(c1cccc(CCOS(=O)(=O)c3ccc(C)cc3)c1)C2=O` [Example 274, 3-(2-(Ethylamino)-9-methyl-5-oxo-5,7,8,9-tetrahydro-6H-pyrimido[4,5-e][1,4]diazepin-6-yl)phenethyl 4-methylbenzenesulfonate] is higher in Ki: 100 to 500 nM for the first, > 3000 nM for the second.

First: CCNc1ncc2c(n1)N(C)CCN(c1cccc(-n3cc(C(OCC)OCC)nn3)c1)C2=O [Example 119, 6-(3-(4-(diethoxymethyl)-1H-1,2,3-triazol-1-yl)phenyl)-2-(ethylamino)-9-methyl-6,7,8,9-tetrahydro-5H-pyrimido[4,5-e][1,4]diazepin-5-one]
Second: CNCCC(OCc1cccc(N2CCN(C)c3ccncc3C2=O)c1)c1ccccc1 (stereo not drawn) [Example 317, 1-methyl-4-(3-((3-(methylamino)-1-phenylpropoxy)methyl)phenyl)-1,2,3,4-tetrahydro-5H-pyrido[4,3-e][1,4]diazepin-5-one]
The Ki of the first is higher: > 3000 nM for the first, 500 to 3000 nM for the second.
